Test results as given in PubChem BioAssay (NCI).
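Cultured in 96-well plates, cells were exposed to test compound for 48 hours across five concentrations. TGI: concentration producing complete growth inhibition.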

Legend:
Assay in all cases: NCI anticancer screen, dose series, 48 h
HL-60(TB) leukemia = test system: HL-60(TB) leukemia
HOP-92 NSCLC = test system: HOP-92 NSCLC
IGROV1 ovarian = test system: IGROV1 ovarian
KM12 colon = test system: KM12 colon
MCF7 breast = test system: MCF7 breast
MDA-MB-231 breast = test system: MDA-MB-231 breast
OVCAR-5 ovarian = test system: OVCAR-5 ovarian
SF-539 CNS = test system: SF-539 CNS
SK-MEL-28 melanoma = test system: SK-MEL-28 melanoma
SNB-19 CNS = test system: SNB-19 CNS
SW-620 colon = test system: SW-620 colon
TK-10 renal = test system: TK-10 renal
U251 CNS = test system: U251 CNS
UACC-257 melanoma = test system: UACC-257 melanoma

Row | Structure (SMILES) | TGI (HL-60(TB) leukemia) [µM] | TGI (HOP-92 NSCLC) [µM] | TGI (IGROV1 ovarian) [µM] | TGI (KM12 colon) [µM] | TGI (MCF7 breast) [µM] | TGI (MDA-MB-231 breast) [µM] | TGI (OVCAR-5 ovarian) [µM] | TGI (SF-539 CNS) [µM] | TGI (SK-MEL-28 melanoma) [µM] | TGI (SNB-19 CNS) [µM] | TGI (SW-620 colon) [µM] | TGI (TK-10 renal) [µM] | TGI (U251 CNS) [µM] | TGI (UACC-257 melanoma) [µM]
1 | COc1ccc(NC(=S)Nc2c(C)n(C)n(-c3ccccc3)c2=O)cc1 | > 100 | > 100 | > 100 | > 100 | > 100 | > 100 | > 100 | > 100 | > 100 | > 100 | > 100 | > 100 | > 100 | > 100
2 | COC(=O)/C=C/c1cnc2c(c1)oc(=O)n2C | > 100 | > 100 | > 100 | > 100 | > 100 | > 100 | > 100 | > 100 | > 100 | > 100 | > 100 | > 100 | > 100 | > 100
3 | O=P(O)(O)CC1OC(CO)C(O)C1O (centres undefined) | > 100 | > 100 | > 100 | > 100 | > 100 | > 100 | > 100 | > 100 | > 100 | > 100 | > 100 | > 100 | > 100 | > 100
4 | CNC(=O)OCC1=C(COC(=O)NC)C(C)N(c2ccccc2)C1 (centres undefined) | 47 | > 100 | 98.4 | > 100 | 58.3 | > 100 | 91.9 | 67.3 | > 100 | > 100 | > 100 | > 100 | > 100 | > 100
5 | COc1ccc(S(=O)(=O)Nc2ccc(-c3csc(N4C(=O)/C(=C/c5cccs5)N=C4c4ccccc4)n3)cc2)cc1Cl | 87.4 | 72 | > 100 | > 100 | > 100 | > 100 | > 100 | > 100 | > 100 | > 100 | > 100 | > 100 | > 100 | > 100
6 | N#CC1=C(S)N(C2OC(CO)C(O)C(O)C2O)C(c2ccccc2)=CC1c1cccs1 (centres undefined) | > 100 | 68.8 | 45.7 | 34.7 | 54.9 | 63.5 | > 100 | 38.7 | 41.4 | > 10 | 65 | 48.2 | 51.4 | 40.8
7 | COc1cc2c3cc1Oc1c(OC)c(OC)cc4c1C(Cc1ccc(O)c(c1)-c1cc(ccc1OC)CC3N(C)CC2)N(C)CC4 (centres undefined) | 15.4 | 53.7 | 63.7 | 37.6 | 49 | 35.4 | > 100 | 23.4 | 82.7 | 56.1 | > 100 | > 100 | > 100 | 59.3
8 | Brc1ccc(C2CC3(c4ccccc4)ON=C(c4ccccc4)N3c3ccccc3S2)cc1 (centres undefined) | > 100 | > 100 | > 100 | > 100 | > 100 | > 100 | > 100 | > 100 | > 100 | > 100 | > 100 | > 100 | > 100 | > 100
9 | COc1cc(OC2OC(CO)C(O)C(O)C2O)c2c(c1)O[C@@H]1[C@H](O)Oc3cc(OC)c(OC)cc3[C@]1(O)C2=O (some centres undefined) | > 25 | > 25 | > 25 | > 25 | > 25 | > 25 | > 25 | > 25 | > 25 | > 25 | > 25 | > 25 | > 25 | > 25
10 | NC(Cc1ccc(O)cn1)C(=O)O (centres undefined) | > 100 | > 100 | > 100 | > 100 | > 100 | > 100 | > 100 | > 100 | > 100 | > 100 | > 100 | > 100 | > 100 | > 100
11 | CN(C)c1c(C2CC(O)C(CO)O2)c(=O)c1=O (centres undefined) | > 100 | > 100 | > 100 | > 100 | > 100 | > 100 | > 100 | > 100 | > 100 | > 100 | > 100 | > 100 | > 100 | > 100
12 | CCSc1nc(C)nc2c1sc1nc3ccccc3n12 | > 100 | > 100 | > 100 | > 100 | > 100 | > 100 | > 100 | > 100 | > 100 | > 100 | > 100 | > 100 | > 100 | > 100
13 | FC(F)(F)C1(c2ccccc2)SCc2nc3ccccc3n21 (centres undefined) | > 100 | > 100 | > 100 | > 100 | > 100 | > 100 | > 100 | > 100 | > 100 | > 100 | > 100 | > 100 | > 100 | > 100
14 | COc1ccc(NC(=O)CC(=O)N2N=C(C)C(N=Nc3ccc(C(=O)O)cc3)C2=O)cc1 (centres undefined) | > 100 | > 100 | > 100 | > 100 | > 100 | > 100 | > 100 | > 100 | > 100 | > 100 | > 100 | > 100 | > 100 | > 100
15 | Cc1cc(=O)n2nc(CSc3n[nH]c(=S)s3)sc2n1 | > 100 | > 100 | > 100 | > 100 | > 100 | > 100 | > 100 | > 100 | > 100 | > 100 | > 100 | > 100 | > 100 | > 100
16 | S=C(S)N1CCN(c2ccccc2)CC1 | 64.4 | > 100 | > 100 | > 100 | > 100 | > 100 | > 100 | > 100 | > 100 | > 100 | > 100 | > 100 | > 100 | > 100
17 | OC[C@@H](O)[C@H](O)[C@@H](O)/C=N/Nc1ccc(Cl)nn1 | > 100 | > 100 | > 100 | > 100 | > 100 | > 100 | > 100 | > 100 | > 100 | > 100 | > 100 | > 100 | > 100 | > 100
18 | Cc1c(C#N)c(N)n(C2OC(CO)C(O)C(O)C2O)c(=S)c1C#N (centres undefined) | > 100 | > 100 | > 100 | > 100 | > 100 | > 100 | > 100 | > 100 | > 100 | > 100 | > 100 | > 100 | > 100 | > 100
19 | Nc1nc(Cl)c(C=O)c(NCC2(CO)CCC2)n1 | 22.3 | 31.1 | 25.9 | > 100 | > 100 | 81.5 | > 100 | > 100 | > 100 | 34.4 | > 100 | > 100 | 31.9 | > 100
20 | C[C@H]1[C@H](C)CC[C@]2(C(=O)OC3OC(CO)C(O)C(O)C3O)CC[C@]3(C)C(=CC[C@@H]4[C@@]5(C)C[C@@H](O)[C@@H]6OC(=O)c7cc(O)c(O)c(O)c7-c7c(cc(O)c(O)c7O)C(=O)OC[C@]6(CO)[C@@H]5CC[C@]43C)[C@H]12 (some centres undefined) | 87.8 | > 100 | > 100 | > 76.3 | 21.8 | 26.4 | > 100 | > 100 | > 100 | > 77.9 | > 63.3 | > 100 | 34.7 | > 100
21 | C[C@]12CC/C(=N\O)C=C1CC[C@@H]1[C@@H]2CC[C@]2(C)C(=N/O)/C(=C/c3ccncc3)C[C@@H]12 | 5.09 | > 100 | > 100 | > 100 | 67.9 | > 100 | > 100 | > 100 | > 100 | > 100 | > 100 | > 100 | > 100 | 80.2
